Experimental data published in patent publication US9765101B2, “Organo-arsenoxide compounds and use thereof” (NewSouth Innovations Pty Limited, priority 2006, dated 2017).

Legend:
Assay type in all cases: cell-based, bovine
BAE cells [1] = test: BAE cell proliferation assay (MTT, 72 h)
Experimental: BAE cells were from Cell Applications, San Diego, Calif. and BxPC-3, HT1080, LLC, PANC-1, MCF-7, HCT116 and K562 cells were from ATCC, Bethesda, Md. NB4 and MDCK2 cells were from Shane Supple (Kanematsu Laboratories, Royal Prince Alfred Hospital, Sydney, Australia) and P. Borst (The Netherlands Cancer Institute, Amsterdam, The Netherlands). BAE, HT1080, Panc-1, MCF-7, HCT116, MDCK2 and LLC cells were cultured in DMEM. NB4, K562 and BxPC-3 cells were cultured in RPMI medium. The cells were supplemented with 10% foetal calf serum (FBS), 2 mM L-glutamine, and 1 U·mL-1 penicillin/streptomycin. Cell culture plasticware was from Techno Plastic Products (Trasadingen, Switzerland). All other cell culture reagents were from Gibco (Gaithersburg, Md.).
Adherent cells were allowed to adhere overnight.

BAE cells [2] = test: Accumulation of GSAO and CAO in BAE cells (ICPMS)
Experimental: (§1) Depending on the type of experiments, 1.6×10^6 or 7.5×10^5 BAE cells were seeded in petri dishes or 6-well-plates, respectively, and allowed to attach overnight. The medium was replaced and the cells were incubated for 30 min in the absence or presence of acivicin or 4H10. The cells were then incubated with 50 or 100 μM GSAO or CAO […] for 4 h. Cells were then washed twice with ice-cold PBS and lysed with 1 ml of 70% w/w nitric acid.

BAE cells [3] = test: BAE cell proliferation assay, 24, 48 or 72 h (Example 2)
Experimental: Bovine aortic endothelial (BAE) cells were from Cell Application (San Diego, Calif.). BAE cells were cultured in DMEM supplemented with 10% fetal calf serum, 2 mM L-glutamine, and 5 units per mL penicillin and streptomycin (Gibco, Gaithersburg, Md.). Cells were cultured at 37° C. in a 5% CO2, 95% air atmosphere. BAE cells were seeded in 96-well plates (5,000 cells per well) in 0.2 ml of culture medium. After 24 h of growth, the medium was replaced with fresh culture medium supplemented with GSAO, CAO or 4H10 and cells were cultured for an additional 24, 48 or 72 h. Viable attached cells were determined using the tetrazolium salt MTT (Sigma, St. Louis, Mo.) according to the manufacturer's protocol. Results were expressed as percentage of untreated controls.

[4] = molecular target: T1, multidrug resistance associated protein 1 (MRP-1) (Bos taurus, UniProt Q8HXQ5); test: Accumulation in BAE cells with MRP-1 inhibitor 4H10
T1 construct: host or cells: BAE (bovine aortic endothelial) cells
Experimental: FIG. 16. […] A. CAO accumulates in cells at a much faster rate than GSAO. BAE cells were incubated with 50 μM GSAO or CAO for 4 h. Cellular arsenic levels were determined by ICPMS. The rates of accumulation are GSAO and CAO are 0.03 and 0.20 nmol As atoms per 10^6 cells, respectively. Data points are the mean±SD of three determinations. The results are representative of two experiments. […] BAE cells pretreated for 30 min with 10 μM of the MRP-1 inhibitor 4H10 were incubated with 50 μM GSAO or CAO for 2 h. Cellular arsenic levels were determined by ICPMS. Data points are the mean±SD of three determinations. The results are representative of two experiments. C. GSAO and CAO IC50 values for proliferation arrest of endothelial cells. BAE cells were incubated with 0.8-100 μM GSAO or CAO for 24, 48 or 72 h. Cell viability was determined using MTT. Results are expressed as percentage of control. Values are mean±SD of triplicate determinations. Results are representative of three experiments.
as §1, with “Cells were then washed twice with ice-cold PBS and lysed with 1 ml of 70% w/w nitric acid.” left out

T1 sequence (Q8HXQ5 whole entry): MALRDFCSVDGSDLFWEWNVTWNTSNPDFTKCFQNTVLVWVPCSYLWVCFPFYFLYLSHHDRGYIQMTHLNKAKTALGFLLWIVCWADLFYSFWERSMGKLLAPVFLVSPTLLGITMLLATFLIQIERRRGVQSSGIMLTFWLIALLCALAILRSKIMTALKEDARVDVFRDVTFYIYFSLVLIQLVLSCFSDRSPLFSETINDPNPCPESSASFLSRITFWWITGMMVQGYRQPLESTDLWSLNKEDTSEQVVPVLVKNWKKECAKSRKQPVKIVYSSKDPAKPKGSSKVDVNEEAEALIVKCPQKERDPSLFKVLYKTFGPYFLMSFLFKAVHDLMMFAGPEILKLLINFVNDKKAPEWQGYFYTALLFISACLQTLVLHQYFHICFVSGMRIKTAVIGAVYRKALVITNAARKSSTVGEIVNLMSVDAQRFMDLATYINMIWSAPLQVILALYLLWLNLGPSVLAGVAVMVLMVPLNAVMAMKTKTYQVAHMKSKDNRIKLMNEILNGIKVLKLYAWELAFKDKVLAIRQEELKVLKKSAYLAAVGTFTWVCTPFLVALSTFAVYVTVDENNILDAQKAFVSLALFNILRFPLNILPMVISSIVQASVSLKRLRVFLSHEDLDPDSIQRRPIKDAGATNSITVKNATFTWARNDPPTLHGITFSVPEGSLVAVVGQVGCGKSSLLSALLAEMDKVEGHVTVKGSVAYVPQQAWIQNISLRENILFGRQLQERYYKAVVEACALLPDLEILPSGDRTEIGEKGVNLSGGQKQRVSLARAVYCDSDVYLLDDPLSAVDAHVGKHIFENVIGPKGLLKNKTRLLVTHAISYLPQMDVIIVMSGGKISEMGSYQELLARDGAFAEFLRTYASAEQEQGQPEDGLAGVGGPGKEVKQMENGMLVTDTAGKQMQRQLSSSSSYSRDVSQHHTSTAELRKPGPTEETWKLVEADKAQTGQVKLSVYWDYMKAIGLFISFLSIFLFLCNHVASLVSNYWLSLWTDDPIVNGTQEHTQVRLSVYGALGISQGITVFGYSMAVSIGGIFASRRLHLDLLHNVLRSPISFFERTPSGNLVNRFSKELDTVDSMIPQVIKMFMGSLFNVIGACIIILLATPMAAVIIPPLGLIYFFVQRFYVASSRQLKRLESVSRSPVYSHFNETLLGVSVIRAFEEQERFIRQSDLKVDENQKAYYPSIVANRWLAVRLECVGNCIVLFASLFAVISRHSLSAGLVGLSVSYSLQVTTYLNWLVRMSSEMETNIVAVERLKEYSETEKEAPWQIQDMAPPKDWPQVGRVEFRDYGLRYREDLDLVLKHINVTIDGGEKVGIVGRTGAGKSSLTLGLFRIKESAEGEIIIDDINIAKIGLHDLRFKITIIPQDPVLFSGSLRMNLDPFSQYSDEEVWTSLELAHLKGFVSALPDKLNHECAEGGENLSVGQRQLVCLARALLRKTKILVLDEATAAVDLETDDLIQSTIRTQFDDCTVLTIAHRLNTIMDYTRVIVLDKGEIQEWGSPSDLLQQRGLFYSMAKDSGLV

SMILES	effect on proliferation of BAE cells (BAE cells [1])	rate of accumulation in endothelial cells, fold faster than GSAO (BAE cells [2])	rate of accumulation (BAE cells [2]; 50 μM, 4 h)	anti-proliferative activity compared to GSAO (BAE cells [3])	export by multidrug resistance associated protein 1 [4]	increase of cellular accumulation when MRP-1 was inhibited ([4]; 10 μM 4H10 30 min, then 50 μM compound 2 h)
CC(C)(SCC(=O)Nc1ccc([As](=O)(O)O)cc1)[C@@H](N)C(=O)O [(S)-Penicillamine-arsenonic acid, reference compound]	no effect on proliferation					
NC(CSCC(=O)Nc1ccc([As](O)O)cc1)C(=O)O (stereo not drawn) [CAO, 4-(N—(S-cysteinylacetyl)amino)-phenylarsinous acid]		~8 fold	0.20 nmol As atoms per 10^6 cells	greater anti-proliferative activity than GSAO	exported from cells by the multidrug resistance associated protein 1	~3 fold
